Laboratory results: patent US20110086759A1, “CHEMICAL COMPOUNDS” (SYNGENTA CROP PROTECTION, INC., priority 2007, published 2011)

Columns and labels:
Type in all cases: in vivo
[1] = tested on: Alopecurus myosuroides (ALOMY); test: Pre-emergence biological efficacy, glasshouse pot test; settings: 312 h
In short: (§1)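 One day after sowing in standard soil, pots were sprayed with compound in acetone/water (50:50) with 0.5% Tween 20, at 1000 or 250 g/ha. Plants grew at 24/16° C day/night, 14 h light, 65% humidity. Damage was scored after 13 days (0 = none, 100 = total).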

Setaria faberi (SETFA) [2] = test: as above; settings: 312 h
In short: as §1

[3] = tested on: Echinochloa crus-galli (ECHCG); test: as above; settings: 312 h
In short: as §1

[4] = tested on: Amaranthus retoflexus (AMARE); test: as above; settings: Amaranthus retroflexus, 312 h
In short: as §1

Solanum nigrum (SOLNI) [5] = test: as above; settings: 312 h
In short: as §1

[6] = tested on: Ipomea hederaceae (IPOHE); test: as above; settings: Ipomoea hederacea, 312 h
In short: as §1

[7] = tested on: Alopecurus myosuroides (ALOMY); test: Post-emergence biological efficacy, glasshouse pot test; settings: 312 h
In short: (§2)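 Pot-grown weeds were sprayed 8 days after sowing with test compound in acetone/water (50:50) with 0.5% Tween 20 at 1000 or 250 g/ha. Glasshouse at 24/16° C day/night, 14 h light, 65% humidity. Damage scored 0-100 (100 = total damage) after 13 days.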

Setaria faberi (SETFA) [8] = test: as above; settings: 312 h
In short: as §2

[9] = tested on: Echinochloa crus-galli (ECHCG); test: as above; settings: 312 h
In short: as §2

[10] = tested on: Amaranthus retoflexus (AMARE); test: as above; settings: Amaranthus retroflexus, 312 h
In short: as §2

Solanum nigrum (SOLNI) [11] = test: as above; settings: 312 h
In short: as §2

[12] = tested on: Ipomea hederaceae (IPOHE); test: as above; settings: Ipomoea hederacea, 312 h
In short: as §2

[13] = pre-emergence, 1,000 g/ha, evaluated after 13 days (100=total damage; 0=no damage), read-out: Percentage damage ALOMY
[14] = pre-emergence, 1,000 g/ha, evaluated after 13 days (100=total damage; 0=no damage), read-out: Percentage damage SETFA
[15] = pre-emergence, 1,000 g/ha, evaluated after 13 days (100=total damage; 0=no damage), read-out: Percentage damage ECHCG
[16] = pre-emergence, 1,000 g/ha, evaluated after 13 days (100=total damage; 0=no damage), read-out: Percentage damage AMARE
[17] = pre-emergence, 1,000 g/ha, evaluated after 13 days (100=total damage; 0=no damage), read-out: Percentage damage SOLNI
[18] = pre-emergence, 1,000 g/ha, evaluated after 13 days (100=total damage; 0=no damage), read-out: Percentage damage IPOHE
[19] = post-emergence, 1,000 g/ha, evaluated after 13 days (100=total damage; 0=no damage), read-out: Percentage damage caused to weed species, ALOMY
[20] = post-emergence, 1,000 g/ha, evaluated after 13 days (100=total damage; 0=no damage), read-out: Percentage damage caused to weed species, SETFA
[21] = post-emergence, 1,000 g/ha, evaluated after 13 days (100=total damage; 0=no damage), read-out: Percentage damage caused to weed species, ECHCG
[22] = post-emergence, 1,000 g/ha, evaluated after 13 days (100=total damage; 0=no damage), read-out: Percentage damage caused to weed species, AMARE
[23] = post-emergence, 1,000 g/ha, evaluated after 13 days (100=total damage; 0=no damage), read-out: Percentage damage caused to weed species, SOLNI
[24] = post-emergence, 1,000 g/ha, evaluated after 13 days (100=total damage; 0=no damage), read-out: Percentage damage caused to weed species, IPOHE
[25] = pre-emergence, rate 1,000 g/ha, evaluated after 13 days (100=total damage to plant; 0=no damage), read-out: Percentage damage caused to weed species, ALOMY
[26] = pre-emergence, rate 1,000 g/ha, evaluated after 13 days (100=total damage to plant; 0=no damage), read-out: Percentage damage caused to weed species, SETFA
[27] = pre-emergence, rate 1,000 g/ha, evaluated after 13 days (100=total damage to plant; 0=no damage), read-out: Percentage damage caused to weed species, ECHCG
[28] = pre-emergence, rate 1,000 g/ha, evaluated after 13 days (100=total damage to plant; 0=no damage), read-out: Percentage damage caused to weed species, AMARE
[29] = pre-emergence, rate 1,000 g/ha, evaluated after 13 days (100=total damage to plant; 0=no damage), read-out: Percentage damage caused to weed species, SOLNI
[30] = pre-emergence, rate 1,000 g/ha, evaluated after 13 days (100=total damage to plant; 0=no damage), read-out: Percentage damage caused to weed species, IPOHE
[31] = Rate 1,000 g/ha, post-emergence spray, evaluated after 13 days (100=total damage to plant; 0=no damage to plant), read-out: Percentage damage caused to weed species, post-emergence, ALOMY
[32] = Rate 1,000 g/ha, post-emergence spray, evaluated after 13 days (100=total damage to plant; 0=no damage to plant), read-out: Percentage damage caused to weed species, post-emergence, SETFA
[33] = Rate 1,000 g/ha, post-emergence spray, evaluated after 13 days (100=total damage to plant; 0=no damage to plant), read-out: Percentage damage caused to weed species, post-emergence, ECHCG
[34] = Rate 1,000 g/ha, post-emergence spray, evaluated after 13 days (100=total damage to plant; 0=no damage to plant), read-out: Percentage damage caused to weed species, post-emergence, AMARE
[35] = Rate 1,000 g/ha, post-emergence spray, evaluated after 13 days (100=total damage to plant; 0=no damage to plant), read-out: Percentage damage caused to weed species, post-emergence, SOLNI
[36] = Rate 1,000 g/ha, post-emergence spray, evaluated after 13 days (100=total damage to plant; 0=no damage to plant), read-out: Percentage damage caused to weed species, post-emergence, IPOHE

## COC(=O)c1nc(C2CC2)nc(NCCc2c[nH]c3ccc(OC)cc23)c1Cl [Compound 4-227, 5-Chloro-2-cyclopropyl-6-methoxycarbonyl-4-[2-(5-methoxyindol-3-yl)-ethylamino]-pyrimidine]
[1]; [13]
  pest or weed control at 1000 g/ha: 0%
Setaria faberi (SETFA) [2]; [14]
  pest or weed control at 1000 g/ha: 0%
[3]; [15]
  pest or weed control at 1000 g/ha: 0%
[4]; [16]
  pest or weed control at 1000 g/ha: 20%
Solanum nigrum (SOLNI) [5]; [17]
  pest or weed control at 1000 g/ha: 30%
[6]; [18]
  pest or weed control at 1000 g/ha: 50%
[7]; [19]
  pest or weed control at 1000 g/ha: 10%
Setaria faberi (SETFA) [8]; [20]
  pest or weed control at 1000 g/ha: 40%
[9]; [21]
  pest or weed control at 1000 g/ha: 30%
[10]; [22]
  pest or weed control at 1000 g/ha: 70%
Solanum nigrum (SOLNI) [11]; [23]
  pest or weed control at 1000 g/ha: 80%
[12]; [24]
  pest or weed control at 1000 g/ha: 70%

## COC(=O)c1nc(C2CC2)nc(NCc2cnc(Cl)s2)c1Cl [Compound 4-146, 5-Chloro-4-(2-chlorothiazol-5-ylmethylamino)-2-cyclopropyl-6-methoxycarbonyl-pyrimidine]
[1]; [13]
  pest or weed control at 1000 g/ha: 50%
Setaria faberi (SETFA) [2]; [14]
  pest or weed control at 1000 g/ha: 0%
[3]; [15]
  pest or weed control at 1000 g/ha: 50%
[4]; [16]
  pest or weed control at 1000 g/ha: 70%
Solanum nigrum (SOLNI) [5]; [17]
  pest or weed control at 1000 g/ha: 40%
[6]; [18]
  pest or weed control at 1000 g/ha: 100%
[7]; [19]
  pest or weed control at 1000 g/ha: 20%
Setaria faberi (SETFA) [8]; [20]
  pest or weed control at 1000 g/ha: 70%
[9]; [21]
  pest or weed control at 1000 g/ha: 50%
[10]; [22]
  pest or weed control at 1000 g/ha: 90%
Solanum nigrum (SOLNI) [11]; [23]
  pest or weed control at 1000 g/ha: 90%
[12]; [24]
  pest or weed control at 1000 g/ha: 80%

## COC(=O)c1nc(-c2ccc(Cl)c(C#N)c2)nc(NCc2ccco2)c1Cl [Compound 221-48, 5-Chloro-2-(4-chloro-3-cyanophenyl)-4-(furan-2-yl-methyl-amino)-6-methoxy-carbonylpyrimidine]
[1]; [25]
  pest or weed control at 1000 g/ha: 0%
Setaria faberi (SETFA) [2]; [26]
  pest or weed control at 1000 g/ha: 0%
[3]; [27]
  pest or weed control at 1000 g/ha: 0%
[4]; [28]
  pest or weed control at 1000 g/ha: 60%
Solanum nigrum (SOLNI) [5]; [29]
  pest or weed control at 1000 g/ha: 0%
[6]; [30]
  pest or weed control at 1000 g/ha: 0%
[7]; [31]
  pest or weed control at 1000 g/ha: 10%
Setaria faberi (SETFA) [8]; [32]
  pest or weed control at 1000 g/ha: 30%
[9]; [33]
  pest or weed control at 1000 g/ha: 30%
[10]; [34]
  pest or weed control at 1000 g/ha: 80%
Solanum nigrum (SOLNI) [11]; [35]
  pest or weed control at 1000 g/ha: 80%
[12]; [36]
  pest or weed control at 1000 g/ha: 40%

## CCOC(=O)CCN(Cc1ccccc1)c1nc(C2CC2)nc(C(=O)OC)c1Cl [Compound 162-60, 5-Chloro-2-cyclopropyl-4-[N-(2-ethoxycarbonyl-ethyl)-N-phenylmethyl-amino]-6-methoxycarbonyl-pyrimidine]
[1]; [25]
  pest or weed control at 1000 g/ha: 10%
Setaria faberi (SETFA) [2]; [26]
  pest or weed control at 1000 g/ha: 0%
[3]; [27]
  pest or weed control at 1000 g/ha: 20%
[4]; [28]
  pest or weed control at 1000 g/ha: 40%
Solanum nigrum (SOLNI) [5]; [29]
  pest or weed control at 1000 g/ha: 20%
[6]; [30]
  pest or weed control at 1000 g/ha: 70%
[7]; [31]
  pest or weed control at 1000 g/ha: 10%
Setaria faberi (SETFA) [8]; [32]
  pest or weed control at 1000 g/ha: 0%
[9]; [33]
  pest or weed control at 1000 g/ha: 0%
[10]; [34]
  pest or weed control at 1000 g/ha: 80%
Solanum nigrum (SOLNI) [11]; [35]
  pest or weed control at 1000 g/ha: 60%
[12]; [36]
  pest or weed control at 1000 g/ha: 70%

## COC(=O)c1nc(C2CC2)nc(NC(C)COc2ccc(C#N)cc2)c1Cl (stereo not drawn) [Compound 4-269, 5-Chloro-4-[2-(4-cyanophenoxy)-1-methyl-ethylamino]-2-cyclopropyl-6-methoxycarbonyl-pyrimidine]
[1]; [13]
  pest or weed control at 1000 g/ha: 0%
Setaria faberi (SETFA) [2]; [14]
  pest or weed control at 1000 g/ha: 0%
[3]; [15]
  pest or weed control at 1000 g/ha: 0%
[4]; [16]
  pest or weed control at 1000 g/ha: 40%
Solanum nigrum (SOLNI) [5]; [17]
  pest or weed control at 1000 g/ha: 0%
[6]; [18]
  pest or weed control at 1000 g/ha: 0%
[7]; [19]
  pest or weed control at 1000 g/ha: 20%
Setaria faberi (SETFA) [8]; [20]
  pest or weed control at 1000 g/ha: 60%
[9]; [21]
  pest or weed control at 1000 g/ha: 0%
[10]; [22]
  pest or weed control at 1000 g/ha: 100%
Solanum nigrum (SOLNI) [11]; [23]
  pest or weed control at 1000 g/ha: 70%
[12]; [24]
  pest or weed control at 1000 g/ha: 90%

## COC(=O)c1nc(C2CC2)nc(NCc2ccc(N(C)C)cc2)c1Cl [Compound 4-87, 5-Chloro-2-cyclopropyl-4-(4-dimethylamino-phenylmethyl-amino)-6-methoxycarbonyl-pyrimidine]
[1]; [13]
  pest or weed control at 1000 g/ha: 90%
Setaria faberi (SETFA) [2]; [14]
  pest or weed control at 1000 g/ha: 90%
[3]; [15]
  pest or weed control at 1000 g/ha: 90%
[4]; [16]
  pest or weed control at 1000 g/ha: 100%
Solanum nigrum (SOLNI) [5]; [17]
  pest or weed control at 1000 g/ha: 100%
[6]; [18]
  pest or weed control at 1000 g/ha: 100%
[7]; [19]
  pest or weed control at 1000 g/ha: 60%
Setaria faberi (SETFA) [8]; [20]
  pest or weed control at 1000 g/ha: 100%
[9]; [21]
  pest or weed control at 1000 g/ha: 60%
[10]; [22]
  pest or weed control at 1000 g/ha: 100%
Solanum nigrum (SOLNI) [11]; [23]
  pest or weed control at 1000 g/ha: 100%
[12]; [24]
  pest or weed control at 1000 g/ha: 100%
